Assays:
nitrification = test: inhibition of nitrification in soil incubation test; format: cell-based, soil microbial biomass; settings: 100 g soil, 10 mg ammoniumsulfate-N, 20° C., 14 days, best obtained NI value
Method: The compounds of the invention have been tested as follows in terms of the inhibition of nitrification: 100 g soil is filled into 500 ml plastic bottles (e.g. soil sampled from the field) and is moistened to 50% water holding capacity. The soil is incubated at 20° C. for two weeks to activate the microbial biomass. 1 ml test solution, containing the compound in the appropriate concentration (usually 0.3 or 1% of nitrogen N), or DMSO and 10 mg nitrogen in the form of ammoniumsulfate-N is added to the soil and everything mixed well. Bottles are capped but loosely to allow air exchange. The bottles are then incubated at 20° C. for 0 and 14 days. For analysis, 300 ml of a 1% K2SO4-solution is added to the bottle containing the soil and shaken for 2 hours in a horizontal shaker at 150 rpm. Then the whole solution is filtered through a filter (Macherey-Nagel Filter MN 807¼). Ammonium and nitrate content is then analyzed in the filtrate in an autoanalyzer at 550 nm (Merck, AA11). The inhibition (NI @ a specified concentration) is calculated as follows: [formula]

[1] = volatility of prior-art nitrification inhibitor; format: physicochemical; settings: stated as disadvantageous for long-term applications

| volatility [1] | SMILES | NI* @ 0.3% (nitrification; compound at 0.3% of nitrogen N) | NI* @ 1% (nitrification; compound at 1% of nitrogen N) |
| --- | --- | --- | --- |
| – | C#CCOc1ccn[nH]1 [Compound 1] | 60.6 | 74.7 |
| high volatility | CCOc1cc(C)[nH]n1 [3-ethoxy-5-methylpyrazole] | – | – |

Reference: patent US11498885B2, “Use of pyrazole propargyl ethers as nitrification inhibitors” (BASF SE, priority 2018, dated 2022)
